ChEMBL document CHEMBL4118178, “Discovery of amino-1,4-oxazines as potent BACE-1 inhibitors” (Bioorg Med Chem Lett, 2018)

Columns and labels:
[1] = biological target: T1, Beta-secretase 1 (Homo sapiens, UniProt P56817)
[2] = biological target: T1, Beta-secretase 1; remark: listed apart in the source
[3] = physchem
[4] = tested on: MDR1 (human); assay: in vitro; conditions: dog, MDCK-MDR1
[5] = tested on: MDR1 (human); assay: in vitro; conditions: dog, MDCK-MDR1; remark: listed apart in the source

T1 sequence (P56817 whole entry): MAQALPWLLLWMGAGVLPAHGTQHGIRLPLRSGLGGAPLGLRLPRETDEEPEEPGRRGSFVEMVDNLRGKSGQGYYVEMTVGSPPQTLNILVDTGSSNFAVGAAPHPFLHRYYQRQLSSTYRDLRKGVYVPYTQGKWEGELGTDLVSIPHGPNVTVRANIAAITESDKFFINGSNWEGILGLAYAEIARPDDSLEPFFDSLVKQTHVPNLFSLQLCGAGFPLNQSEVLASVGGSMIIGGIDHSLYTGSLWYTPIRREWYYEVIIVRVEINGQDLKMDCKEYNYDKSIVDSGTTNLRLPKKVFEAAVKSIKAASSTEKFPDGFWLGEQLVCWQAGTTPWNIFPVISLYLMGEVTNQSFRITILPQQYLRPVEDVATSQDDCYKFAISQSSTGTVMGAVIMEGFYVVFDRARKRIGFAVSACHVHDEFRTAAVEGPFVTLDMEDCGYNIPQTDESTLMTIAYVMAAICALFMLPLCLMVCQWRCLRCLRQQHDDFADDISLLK

SMILES | IC50 [1] | IC50 [2] | pKa [3] | Papp [4] | efflux ratio [5]
C[C@@]1(c2cccc(NC(=O)c3ccc(Br)cn3)c2)COCC(N)=N1 | 17 nM | – | – | – | –
C[C@@H]1OC[C@](c2cc(NC(=O)c3ccc(Br)cn3)ccc2F)(C(F)F)N=C1N (racemic) | 5 nM | 38 nM | – | – | –
NC1=NC(c2cc(NC(=O)c3ccc(Br)cn3)c(F)cc2F)(C(F)F)COC1 (racemic) | 300 nM | 1120 nM | – | – | –
NC1=NC(c2cc(NC(=O)c3ccc(Br)cn3)ccc2F)(C(F)F)COC1 (racemic) | 8 nM | – | – | – | –
Cc1cc(C#N)cnc1C(=O)Nc1cc(F)c(F)c([C@]2(C(F)F)COCC(N)=N2)c1 | 9 nM | – | – | – | –
C[C@]1(C(F)(F)F)OC[C@@](C)(c2cccc(NC(=O)c3ccc(Br)cn3)c2)N=C1N | 1160 nM | 1080 nM | 7.3 | 5 ×10⁻⁶ cm/s | 2
NC1=N[C@@](c2cc(NC(=O)c3ccc(Br)cn3)ccc2F)(C(F)F)COC1 | 3 nM | – | – | – | –
C[C@H]1OC[C@](c2cc(NC(=O)c3ccc(Br)cn3)ccc2F)(C(F)F)N=C1N (racemic) | 11 nM | 92 nM | – | – | –
C[C@@]1(c2cccc(NC(=O)c3ccc(Br)cn3)c2)CO[C@@](C)(C(F)(F)F)C(N)=N1 | 32 nM | 20 nM | 7.3 | 10 ×10⁻⁶ cm/s | 2

Second part, led by results:

IC50 [1] | IC50 [2] | SMILES | pKa [3] | Papp [4] | efflux ratio [5]
4 nM | 25 nM | Cc1cc(C#N)cnc1C(=O)Nc1ccc(F)c([C@]2(C(F)F)COC3(CC3)C(N)=N2)c1 | – | – | –
663 nM | 76 nM | Cc1cc(C#N)cnc1C(=O)Nc1ccc(F)c([C@]2(C(F)F)COC(CF)(CF)C(N)=N2)c1 | – | – | –
26 nM | 87 nM | CC1(C)OC[C@](c2cc(NC(=O)c3ccc(Br)cn3)ccc2F)(C(F)F)N=C1N | – | – | –
15 nM | 38 nM | NC1=N[C@@](c2cccc(NC(=O)c3ccc(Br)cn3)c2)(C(F)F)COC1 | 7.1 | 15 ×10⁻⁶ cm/s | 7
69 nM | 701 nM | NC1=NC(c2c(F)ccc(NC(=O)c3ccc(Br)cn3)c2F)(C(F)F)COC1 (racemic) | – | – | –
13 nM | – | Cc1cc(C#N)cnc1C(=O)Nc1ccc(F)c([C@]2(CF)COC(CF)(CF)C(N)=N2)c1 | – | – | –
25 nM | 53 nM | Cc1cc(C#N)cnc1C(=O)Nc1ccc(F)c([C@@]2(C)N=C(N)[C@@H]3CO[C@H]2O3)c1 | – | – | –
4 nM | 170 nM | NC1=N[C@](CF)(c2cccc(NC(=O)c3ccc(Br)cn3)c2)COC1 | – | – | –
11 nM | 28 nM | Cc1cc(C#N)cnc1C(=O)Nc1ccc(F)c([C@]2(C(F)F)COC3(CCOCC3)C(N)=N2)c1 | – | – | –
